# Target: T1, Recombinant Hepatic Lipase (Homo sapiens, UniProt P11150)
# T1 construct: made in house; host or cells: AV12 cells
# T1 sequence (P11150 23-499): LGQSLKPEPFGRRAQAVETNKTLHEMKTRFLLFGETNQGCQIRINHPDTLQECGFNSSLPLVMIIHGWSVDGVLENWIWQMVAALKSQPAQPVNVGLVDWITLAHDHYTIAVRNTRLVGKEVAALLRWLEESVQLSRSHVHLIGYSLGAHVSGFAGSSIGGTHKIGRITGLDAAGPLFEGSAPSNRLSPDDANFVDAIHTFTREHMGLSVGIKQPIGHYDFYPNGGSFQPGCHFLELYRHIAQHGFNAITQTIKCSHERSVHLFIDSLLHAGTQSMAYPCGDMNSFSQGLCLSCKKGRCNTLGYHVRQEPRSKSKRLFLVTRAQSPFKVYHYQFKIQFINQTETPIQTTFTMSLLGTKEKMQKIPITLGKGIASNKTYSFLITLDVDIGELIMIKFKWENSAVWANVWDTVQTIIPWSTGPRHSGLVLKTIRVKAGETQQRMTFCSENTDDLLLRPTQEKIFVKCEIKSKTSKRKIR
# Assay: Hepatic Lipase Phospholipase Assay (ThioPEG substrate, DTNB read at 412 nm)
# Type: biochemical
# Conditions: recombinant HL 12.5 nM, 37° C., pH 8.3, read-out: IC50 (nM), hepatic lipase inhibition assay
# Method: Hepatic Lipase Phospholipase Assay
# Efficacy was determined by testing various compounds of the invention in a hepatic lipase and/or endothelial lipase assay discussed below, and disclosed in U.S. patent application Ser. No. 09/609, 871 filed Jul. 3, 2000 incorporated herein in its entirety for U.S Patent office purposes.
# • Substrate Buffer A: 100 mM Hepes, pH 8.3 at 37° C. • Substrate Buffer B: 100 mM Hepes, pH 8.3 at 37° C. with 6.83 mM Triton X100 • ThioPEG: Molecular wt. of 540 • Recombinant Hepatic Lipase • Thiophospholipid: about 0.42 mM thiophospholipid in chloroform • DTNB Solution: about […] DTNB in DMSO (dimethyl sulfoxide) Hepes Buffer A
# For Hepes Buffer A,.there is 2.4 g Hepes/100 mL water. Therefore 36 grams of Hepes is dissolved in 1500 mL of water. The mix solution's pH is adjusted to pH83 at 37° C. and brought up to 1500 mL with water. 500 mL of Buffer A is retained for the Protein Buffer.
# To the remaining 1000 mL of Hepes Buffer A, 4.49 g of Triton X-100 is added and then the combination mixed on a stir plate. It is optimal that stock Buffer A not be too cold or Triton X-100 will take a long time to go into solution […]
# The enzyme is stored at −80° C. in 100 or 50 μL portions. […] The enzyme should then be stored on ice until ready to use. […]
row,IC50,Compound
1,60 nM,O=C(NCc1ccccc1)n1oc2ccccc2c1=O

# Test system: not given
# Assay: not given
# Conditions: not given
row,melting point,Compound
1,140 to 141 °C,"COc1ccc(CNC(=O)n2oc3ccccc3c2=O)cc1 [Example 19, 3-Oxo-3H-benzo[d]isoxazole-2-carboxylic acid 4-methoxy-benzylamide]"
2,107 to 109 °C,"CCc1ccccc1CNC(=O)n1oc2ccccc2c1=O [Example 14, 3-Oxo-3H-benzo[d]isoxazole-2-carboxylic acid 2-ethyl-benzylamide]"
3,142 to 143 °C,"O=C(NCc1ccccc1F)n1oc2ccccc2c1=O [Example 12, 3-Oxo-3H-benzo[d]isoxazole-2-carboxylic acid 2-fluoro-benzylamide]"
4,154 to 155 °C,"Cc1ccccc1CNC(=O)n1oc2ccccc2c1=O [Example 8, 3-Oxo-3H-benzo[d]isoxazole-2-carboxylic acid 2-methyl-benzylamide]"
5,123 to 125 °C,"CC(C)(C)c1ccc(CNC(=O)n2oc3ccccc3c2=O)cc1 [Example 16, 3-Oxo-3H-benzo[d]isoxazole-2-carboxylic acid 4-tert-butyl-benzylamide]"
6,112 to 113 °C,"CCNC(=O)n1oc2ccccc2c1=O [Example 1, 3-Oxo-3H-benzo[d]isoxazole-2-carboxylic acid ethylamide]"
7,73 to 75 °C,"CC(C)CCCCNC(=O)n1oc2ccccc2c1=O [Example 4, 3-Oxo-3H-benzo[d]isoxazole-2-carboxylic acid (5-methyl-hexyl)amide]"
8,106 to 107 °C,"O=C(NCCc1ccccc1)n1oc2ccccc2c1=O [Example 23, 3-Oxo-3H-benzo[d]isoxazole-2-carboxylic acid phenethyl-amide]"
9,112 to 114 °C,"Cc1cccc(C(C)C)c1CNC(=O)n1oc2ccccc2c1=O [Example 17, 3-Oxo-3H-benzo[d]isoxazole-2-carboxylic acid 2-isopropyl-6-methyl-benzylamide]"
10,110 to 112 °C,"CCOc1ccccc1CNC(=O)n1oc2ccccc2c1=O [Example 20, 3-Oxo-3H-benzo[d]isoxazole-2-carboxylic acid 2-ethoxy-benzylamide]"
11,139 to 141 °C,"O=C(NCc1ccccc1C(F)(F)F)n1oc2ccccc2c1=O [Example 11, 3-Oxo-3H-benzo[d]isoxazole-2-carboxylic acid 2-trifluoromethyl-benzylamide]"
12,82 to 84 °C,"O=C(NCC1CCCCC1)n1oc2ccccc2c1=O [Example 6, 3-Oxo-3H-benzo[d]isoxazole-2-carboxylic acid cyclohexylmethyl-amide]"
13,72 to 73 °C,"CCc1cccc(CNC(=O)n2oc3ccccc3c2=O)c1 [Example 15, 3-Oxo-3H-benzo[d]isoxazole-2-carboxylic acid 3-ethyl-benzylamide]"
14,110 to 112 °C,"Cc1cccc(CNC(=O)n2oc3ccccc3c2=O)c1 [Example 9, 3-Oxo-3H-benzo[d]isoxazole-2-carboxylic acid 3-methyl-benzylamide]"
15,64 to 65 °C,"CCCCNC(=O)n1oc2ccccc2c1=O [Example 2, 3-Oxo-3H-benzo[d]isoxazole-2-carboxylic acid butylamide]"
16,110 to 112 °C,"CCOc1ccc(CNC(=O)n2oc3ccccc3c2=O)cc1 [Example 22, 3-Oxo-3H-benzo[d]isoxazole-2-carboxylic acid 4-ethoxy-benzylamide]"
17,47 to 48 °C,"CCCCCCCCNC(=O)n1oc2ccccc2c1=O [Example 5, 3-Oxo-3H-benzo[d]isoxazole-2-carboxylic acid octylamide]"
18,89 to 90 °C,"CCOc1cccc(CNC(=O)n2oc3ccccc3c2=O)c1 [Example 21, 3-Oxo-3H-benzo[d]isoxazole-2-carboxylic acid 3-ethoxy-benzylamide]"
19,46 to 48 °C,"CCCCCCNC(=O)n1oc2ccccc2c1=O [Example 3, 3-Oxo-3H-benzo[d]isoxazole-2-carboxylic acid hexylamide]"
20,99 to 100 °C,"COc1cccc(CNC(=O)n2oc3ccccc3c2=O)c1 [Example 18, 3-Oxo-3H-benzo[d]isoxazole-2-carboxylic acid 3-methoxy-benzylamide]"
